The values below come from patent US20090076140A1, “PHARMACEUTICAL COMPOSITIONS CONTAINING SULPHONIC ACID DERIVATIVES” (ITALFARMACO, S. A., priority 2003, published 2009).

The target in data set [1] is T1, aFGF (Homo sapiens, UniProt P05230). Put plainly: aFGF-induced mitogenesis inhibition test on fibroblasts in culture. In kind it is cell-based. Further details: the aFGF of 139 amino acid residues. As to conditions: for aFGF-induced mitogenic activity inhibition (in words): Balb/c 3T3 fibroblasts, 60 hours, MIHS 20 μg/mL, aFGF 0.32 ng/mL; for aFGF-induced mitogenic inhibitory activity compared between compounds (stereochemical guidelines): C-9 and C-17 vs. C-14 and C-18, C-10, C-11, C-13 vs. C-9, 2-NMS vs 1-NMS series.

Data set [2] concerns quiescent fibroblasts (Balb/c 3T3). Put plainly: toxicity analysis for quiescent fibroblasts (culture in the absence of aFGF). In kind it is cell-based. To be noted: for toxicity for quiescent fibroblasts: within the concentration range tested / in which aFGF mitogenic activity is inhibited.
Data set [3] concerns the target T1, aFGF. Further details: the aFGF of 139 amino acid residues. To be noted: Lozano et al. (1998), cited from earlier work.
Data set [4] deals with quiescent fibroblasts (Balb/c 3T3). To be noted: Lozano et al. (1998), cited from earlier work.
Where [5] appears, read: listed as sodium 4-hydroxy-6-amino-2-naphthalenesulfonate.
Setting [6] is: listed as sodium 5-acetylamino-2-naphthalenesulfonate.

Entries after “also recorded” stand apart in the source; their conditions may differ. Where two headings read alike, the source gives them in different places.

T1 sequence (P05230 16-155 limits assumed): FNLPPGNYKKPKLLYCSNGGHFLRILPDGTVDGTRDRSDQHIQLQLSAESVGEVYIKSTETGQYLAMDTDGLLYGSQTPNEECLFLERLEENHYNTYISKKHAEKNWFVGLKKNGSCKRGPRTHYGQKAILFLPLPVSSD

Consider `O=C(O)c1ccccc1C(=O)Nc1cccc2cc(S(=O)(=O)O)ccc12.[Na]` [Compound C-12, sodium 2-{[(6-sulfo-1-naphthyl)amino]carbonyl}benzoic acid], for which the “aFGF-induced mitogenic activity inhibition (in words)” value at aFGF [1] is on record as “effective aFGF-induced mitogenesis activity inhibitors”. Further, the “mitogenesis inductor / tumorigenic effect on quiescent fibroblasts in the absence of aFGF” value in data set [2] is given as “high mitogenesis inductor activity”.

As to `O=C(CCCCC(=O)Nc1cccc2cc(S(=O)(=O)O)ccc12)Nc1cccc2cc(S(=O)(=O)[O-])ccc12.[Na+]` [Compound C-13], at aFGF [1], the “aFGF-induced mitogenic activity inhibition (in words)” value was “effective aFGF-induced mitogenesis activity inhibitors” and the “aFGF-induced mitogenic inhibitory activity compared between compounds (stereochemical guidelines)” value was “significant reduction”. Besides, the “mitogenesis inductor / tumorigenic effect on quiescent fibroblasts in the absence of aFGF” value in data set [2] is reported as “high mitogenesis inductor activity”.

With `Nc1ccc2cc(S(=O)(=O)[O-])cc(O)c2c1.[Na+]` [Compound C-17, sodium 6-amino-4-hydroxy-2-naphthalenesulfonate], the entries for the “aFGF-induced mitogenic activity inhibition (in words)” value at aFGF [1] and at aFGF [1] (setting [5]) were “slightly less than that of C-9” and “potent aFGF-induced mitogenic activity inhibitors”, respectively. The “aFGF-induced mitogenic inhibitory activity compared between compounds (stereochemical guidelines)” value on aFGF [1] is given as “better aFGF-induced mitogenic activity inhibitors”. In addition, the “toxicity for quiescent fibroblasts” value in data set [2] is “innocuous”; in data set [2] (setting [5]) it was “not toxic”.

`Cc1ccc2ccccc2c1S(=O)(=O)[O-].[Na+]` [Compound C-2, sodium 2-methyl-1-naphthalenesulfonate]: on aFGF [1], the “aFGF-induced mitogenic activity inhibition (in words)” value is given as “aFGF-induced mitogenic activity inhibitors”. Also, the “toxicity for quiescent fibroblasts” value in data set [2] was “certain toxic effect”.

On to `O=S(=O)(O)c1cccc2c(S(=O)(=O)O)cccc12` [1,5-NDS, 1,5-naphthalenedisulfonic acid, reference compound], for which the “aFGF-induced mitogenic activity inhibition (literature)” value on aFGF [3] was “better aFGF mitogenic activity inhibitors than NTS; also recorded: aFGF-induced mitogenic activity inhibitors”. For the same compound, in data set [4], the “toxicity at concentrations at which aFGF mitogenic activity is inhibited (literature)” value is given as “clear toxicity; also recorded: toxic”.

`CC(=O)Nc1ccc2c(O)cc(S(=O)(=O)[O-])cc2c1.[Na+]` [Compound C-19, sodium 7-acetylamino-4-hydroxy-2-naphthalenesulfonate]: the “mitogenesis inductor / tumorigenic effect on quiescent fibroblasts in the absence of aFGF” value in data set [2] is given as “certain tumorigenic effect”.

With `CC(=O)Nc1cccc2cc(S(=O)(=O)[O-])ccc12.[Na+]` [Compound C-10, sodium 5-acetylamino-2-naphthalenesulfonate], the entries for the “aFGF-induced mitogenic activity inhibition (in words)” value on aFGF [1] and on aFGF [1] (setting [6]) were “slightly less than that of C-9” and “potent aFGF-induced mitogenic activity inhibitors”, respectively. Also, the “aFGF-induced mitogenic inhibitory activity compared between compounds (stereochemical guidelines)” value at aFGF [1] is reported as “does not substantially alter the inhibitory activity”. Also, the results for the “toxicity for quiescent fibroblasts” value in data set [2] and in data set [2] (setting [6]) were “innocuous” and “not toxic”, respectively.

As to `Nc1ccc(S(=O)(=O)[O-])c2ccccc12.[Na+]` [Compound C-3, sodium 4-amino-1-naphthalenesulfonate], the “aFGF-induced mitogenic activity inhibition (in words)” value at aFGF [1] is “low aFGF-induced mitogenesis inhibitory activity”. The “toxicity for quiescent fibroblasts” value in data set [2] is “not toxic”.

With `O=S(=O)([O-])c1cccc2cccnc12.[Na+]` [Compound C-24, sodium 8-quinolinesulfonate], the “aFGF-induced mitogenic activity inhibition (in words)” value at aFGF [1] is on record as “little aFGF-induced mitogenesis inhibitory activity”. Moreover, the “toxicity for quiescent fibroblasts” value in data set [2] is recorded as “innocuous”.

Regarding `CC(=O)Nc1ccc(S(=O)(=O)[O-])c2ccccc12.[Na+]` [Compound C-4, sodium 4-acetylamino-1-naphthalenesulfonate], the “aFGF-induced mitogenic activity inhibition (in words)” value on aFGF [1] was “aFGF-induced mitogenic activity inhibitors”. For the same compound, the “toxicity for quiescent fibroblasts” value in data set [2] is listed as “certain toxic effect”.

`Nc1c(O)cc(S(=O)(=O)[O-])c2ccccc12.[Na+]` [Compound C-7, sodium 4-amino-3-hydroxy-1-naphthalenesulfonate]: at aFGF [1], the “aFGF-induced mitogenic activity inhibition (in words)” value is given as “aFGF-induced mitogenic activity inhibitors; also recorded: best aFGF-induced mitogenic activity inhibitory activity”. Moreover, the “IC50 rank among the tested compounds” value on aFGF [1] (aFGF-induced mitogenesis) was “lowest IC50”. Besides, the “proliferation of quiescent fibroblasts cultured in the absence of aFGF” value in data set [2] (at concentrations exceeding 0.2 mM) was “significantly increases”. The “toxicity for quiescent fibroblasts” value in data set [2] is reported as “certain toxic effect”.

In the case of `O=C(Nc1ccc(S(=O)(=O)[O-])c2ccccc12)c1ccccc1.[Na+]` [Compound C-5, sodium 4-benzoylamino-1-naphthalenesulfonate], at aFGF [1], the “aFGF-induced mitogenic activity inhibition (in words)” value is on record as “low aFGF-induced mitogenesis inhibitory activity”. In data set [2], the “toxicity for quiescent fibroblasts” value is “not toxic”.

Take `Nc1ccc2c(O)cc(S(=O)(=O)[O-])cc2c1.[Na+]` [Compound C-18, sodium 7-amino-4-hydroxy-2-naphthalenesulfonate]: at aFGF [1], the “aFGF-induced mitogenic activity inhibition (in words)” value is given as “aFGF-induced mitogenic activity inhibitors”.

Regarding `Nc1cccc2ccc(S(=O)(=O)[O-])cc12.[Na+]` [Compound C-14, sodium 8-amino-2-naphthalenesulfonate], the “aFGF-induced mitogenic activity inhibition (in words)” value on aFGF [1] is on record as “aFGF-induced mitogenic activity inhibitors”. Also, in data set [2], the “toxicity for quiescent fibroblasts” value is recorded as “certain toxic effect”.

In the case of `CN(C)c1cccc2c(S(=O)(=O)[O-])cccc12.[Na+]` [Compound C-6, sodium 5-dimethylamino-1-naphthalenesulfonate], the “aFGF-induced mitogenic activity inhibition (in words)” value at aFGF [1] is reported as “aFGF-induced mitogenic activity inhibitors”. Further, the “toxicity for quiescent fibroblasts” value in data set [2] was “certain toxic effect”.

In the case of `O=S(=O)(O)c1ccc2ccccc2c1` [Compound C-8, 2-naphthalenesulfonic acid], the “aFGF-induced mitogenic activity inhibition (in words)” value is listed as “inhibits aFGF-induced mitogenic activity at lower concentrations than compound C-1” at aFGF [1] and “inhibits aFGF-induced mitogenic activity” on aFGF [1] (listed as 2-NMS). For the same compound, in data set [2], the “toxicity for quiescent fibroblasts” value is reported as “toxic”.

Regarding `O=C(Nc1cccc2ccc(S(=O)(=O)[O-])cc12)c1ccccc1.[Na+]` [Compound C-16, sodium 8-benzoylamino-2-naphthalenesulfonate], the “aFGF-induced mitogenic activity inhibition (in words)” value on aFGF [1] was “aFGF-induced mitogenic activity inhibitors”. The “toxicity for quiescent fibroblasts” value in data set [2] is “innocuous”.

`NCc1ccc(S(=O)(=O)[O-])cc1.[Na+]` [Compound C-21, sodium 4-(aminomethyl)benzenesulfonate]: the “mitogenesis inductor / tumorigenic effect on quiescent fibroblasts in the absence of aFGF” value in data set [2] is “certain tumorigenic effect”.

As to `CC(=O)Nc1cccc2ccc(S(=O)(=O)[O-])cc12.[Na+]` [Compound C-15, sodium 8-acetylamino-2-naphthalenesulfonate], the “aFGF-induced mitogenic activity inhibition (in words)” value on aFGF [1] was “aFGF-induced mitogenic activity inhibitors”. In data set [2], the “toxicity for quiescent fibroblasts” value is on record as “innocuous”.

As to `CN(C)Cc1cc2cc(S(=O)(=O)O)ccc2[nH]1` [Compound C-25, 2-[(dimethylamino)methyl]-1H-indole-5-sulfonic acid], in data set [2], the “mitogenesis inductor / tumorigenic effect on quiescent fibroblasts in the absence of aFGF” value is “certain tumorigenic effect”.

As to `O=S(=O)([O-])c1ccc2ncccc2c1.[Na+]` [Compound C-23, sodium 6-quinolinesulfonate], the “aFGF-induced mitogenic activity inhibition (in words)” value on aFGF [1] is given as “potent aFGF-induced mitogenic activity inhibitor”. Also, the “toxicity for quiescent fibroblasts” value in data set [2] is recorded as “toxic effect”.

As for `O=C(Nc1cccc2cc(S(=O)(=O)[O-])ccc12)c1ccccc1.[Na+]` [Compound C-11, sodium 5-benzoylamino-2-naphthalenesulfonate], on aFGF [1], the “aFGF-induced mitogenic activity inhibition (in words)” value was “aFGF-induced mitogenic activity inhibitors” and the “aFGF-induced mitogenic inhibitory activity compared between compounds (stereochemical guidelines)” value was “significant reduction”.

Take `O=S(=O)(O)c1cccc2ccccc12` [Compound C-1, 1-naphthalenesulfonic acid]: at aFGF [1], the “aFGF-induced mitogenic activity inhibition (in words)” value was “aFGF-induced mitogenic activity inhibitors”. Besides, the “aFGF-induced mitogenic activity inhibition (literature)” value on aFGF [3] (listed as 1-NMS) is “better aFGF mitogenic activity inhibitors than NTS; also recorded: aFGF-induced mitogenic activity inhibitors; also recorded: more potent inhibitor than 1,3,6-NTS and 1,5-NDS”. The “toxicity at concentrations at which aFGF mitogenic activity is inhibited (literature)” value in data set [4] (listed as 1-NMS) is “clear toxicity; also recorded: toxic”. Further, the “toxicity for quiescent fibroblasts” value in data set [2] was “certain toxic effect”.

As to `Nc1ccc(S(=O)(=O)[O-])cc1.[Na+]` [Compound C-20, sodium 4-aminobenzenesulfonate], the “aFGF-induced mitogenic activity inhibition (in words)” value on aFGF [1] is recorded as “little aFGF-induced mitogenesis inhibitory activity”. In addition, the “toxicity for quiescent fibroblasts” value in data set [2] is “innocuous”.
